Experimental data: the NIST ThermoML archive (doi:10.1021/acs.jced.9b00396)

Settings: Liquid; for speed of sound: Frequency=3 MHz, Single path-length method; for mass density: Vibrating tube method

CC(=O)OCCC(C)C [3-methylbutyl ethanoate]
Settings	mass density [kg/m3]	speed of sound [m/s]
293.15 K, 100 kPa	872.9	1213
293.15 K, 500 kPa	874	–
293.15 K, 1000 kPa	874	–
293.15 K, 2500 kPa	875	–
293.15 K, 5000 kPa	877	–
293.15 K, 7500 kPa	879	–
293.15 K, 10000 kPa	881	–
293.15 K, 12500 kPa	883	–
293.15 K, 15000 kPa	885	–
293.15 K, 17500 kPa	887	–
293.15 K, 20000 kPa	889	–
293.15 K, 22500 kPa	891	–
293.15 K, 25000 kPa	893	–
293.15 K, 27500 kPa	895	–
293.15 K, 30000 kPa	896	–
293.15 K, 32500 kPa	898	–
293.15 K, 35000 kPa	899	–
293.15 K, 37500 kPa	901	–
298.15 K, 100 kPa	868	1193
298.15 K, 500 kPa	869	–
298.15 K, 1000 kPa	869	–
298.15 K, 2500 kPa	870	–
298.15 K, 5000 kPa	873	–
298.15 K, 7500 kPa	875	–
298.15 K, 10000 kPa	877	–
298.15 K, 12500 kPa	879	–
298.15 K, 15000 kPa	881	–
298.15 K, 17500 kPa	883	–
298.15 K, 20000 kPa	885	–
298.15 K, 22500 kPa	886	–
298.15 K, 25000 kPa	888	–
298.15 K, 27500 kPa	890	–
298.15 K, 30000 kPa	892	–
298.15 K, 32500 kPa	894	–
298.15 K, 35000 kPa	895	–
298.15 K, 37500 kPa	897	–
313.15 K, 100 kPa	853.3	1132
313.15 K, 500 kPa	854	–
313.15 K, 1000 kPa	854	–
313.15 K, 2500 kPa	856	–
313.15 K, 5000 kPa	858	–
313.15 K, 7500 kPa	861	–
313.15 K, 10000 kPa	863	–
313.15 K, 12500 kPa	865	–
313.15 K, 15000 kPa	867	–
313.15 K, 17500 kPa	869	–
313.15 K, 20000 kPa	871	–
313.15 K, 22500 kPa	873	–
313.15 K, 25000 kPa	875	–
313.15 K, 27500 kPa	877	–
313.15 K, 30000 kPa	879	–
313.15 K, 32500 kPa	881	–
313.15 K, 35000 kPa	883	–
313.15 K, 37500 kPa	885	–
333.15 K, 100 kPa	833.3	1045
333.15 K, 500 kPa	834	–
333.15 K, 1000 kPa	834	–
333.15 K, 2500 kPa	836	–
333.15 K, 5000 kPa	839	–
333.15 K, 7500 kPa	842	–
333.15 K, 10000 kPa	844	–
333.15 K, 12500 kPa	847	–
333.15 K, 15000 kPa	849	–
333.15 K, 17500 kPa	851	–
333.15 K, 20000 kPa	854	–
333.15 K, 22500 kPa	856	–
333.15 K, 25000 kPa	858	–
333.15 K, 27500 kPa	860	–
333.15 K, 30000 kPa	862	–
333.15 K, 32500 kPa	864	–
333.15 K, 35000 kPa	866	–
333.15 K, 37500 kPa	868	–
353.15 K, 500 kPa	814	–
353.15 K, 1000 kPa	814	–
353.15 K, 2500 kPa	816	–
353.15 K, 5000 kPa	819	–
353.15 K, 7500 kPa	823	–
353.15 K, 10000 kPa	825	–
353.15 K, 12500 kPa	828	–
353.15 K, 15000 kPa	831	–
353.15 K, 17500 kPa	834	–
353.15 K, 20000 kPa	836	–
353.15 K, 22500 kPa	839	–
353.15 K, 25000 kPa	841	–
353.15 K, 27500 kPa	843	–
353.15 K, 30000 kPa	846	–
353.15 K, 32500 kPa	848	–
353.15 K, 35000 kPa	850	–
353.15 K, 37500 kPa	852	–
373.15 K, 500 kPa	793	–
373.15 K, 1000 kPa	794	–
373.15 K, 2500 kPa	796	–
373.15 K, 5000 kPa	800	–
373.15 K, 7500 kPa	803	–
373.15 K, 10000 kPa	806	–
373.15 K, 12500 kPa	810	–
373.15 K, 15000 kPa	813	–
373.15 K, 17500 kPa	816	–
373.15 K, 20000 kPa	818	–
373.15 K, 22500 kPa	821	–
373.15 K, 25000 kPa	824	–
373.15 K, 27500 kPa	827	–
373.15 K, 30000 kPa	829	–
373.15 K, 32500 kPa	832	–
373.15 K, 35000 kPa	834	–
373.15 K, 37500 kPa	836	–
393.15 K, 500 kPa	772	–
393.15 K, 1000 kPa	773	–
393.15 K, 2500 kPa	775	–
393.15 K, 5000 kPa	779	–
393.15 K, 7500 kPa	783	–
393.15 K, 10000 kPa	787	–
393.15 K, 12500 kPa	791	–
393.15 K, 15000 kPa	794	–
393.15 K, 17500 kPa	798	–
393.15 K, 20000 kPa	801	–
393.15 K, 22500 kPa	804	–
393.15 K, 25000 kPa	807	–
393.15 K, 27500 kPa	810	–
393.15 K, 30000 kPa	812	–
393.15 K, 32500 kPa	815	–
393.15 K, 35000 kPa	818	–
393.15 K, 37500 kPa	820	–
413.15 K, 500 kPa	750	–
413.15 K, 1000 kPa	751	–
413.15 K, 2500 kPa	754	–
413.15 K, 5000 kPa	759	–
413.15 K, 7500 kPa	763	–
413.15 K, 10000 kPa	768	–
413.15 K, 12500 kPa	772	–
413.15 K, 15000 kPa	776	–
413.15 K, 17500 kPa	779	–
413.15 K, 20000 kPa	783	–
413.15 K, 22500 kPa	786	–
413.15 K, 25000 kPa	790	–
413.15 K, 27500 kPa	793	–
413.15 K, 30000 kPa	796	–
413.15 K, 32500 kPa	799	–
413.15 K, 35000 kPa	802	–
413.15 K, 37500 kPa	805	–
433.15 K, 500 kPa	726	–
433.15 K, 1000 kPa	727	–
433.15 K, 2500 kPa	731	–
433.15 K, 5000 kPa	737	–
433.15 K, 7500 kPa	742	–
433.15 K, 10000 kPa	747	–
433.15 K, 12500 kPa	752	–
433.15 K, 15000 kPa	757	–
433.15 K, 17500 kPa	761	–
433.15 K, 20000 kPa	765	–
433.15 K, 22500 kPa	769	–
433.15 K, 25000 kPa	772	–
433.15 K, 27500 kPa	776	–
433.15 K, 30000 kPa	779	–
433.15 K, 32500 kPa	783	–
433.15 K, 35000 kPa	786	–
433.15 K, 37500 kPa	789	–
453.15 K, 500 kPa	701	–
453.15 K, 1000 kPa	703	–
453.15 K, 2500 kPa	707	–
453.15 K, 5000 kPa	714	–
453.15 K, 7500 kPa	721	–
453.15 K, 10000 kPa	727	–
453.15 K, 12500 kPa	732	–
453.15 K, 15000 kPa	737	–
453.15 K, 17500 kPa	742	–
453.15 K, 20000 kPa	747	–
453.15 K, 22500 kPa	751	–
453.15 K, 25000 kPa	755	–
453.15 K, 27500 kPa	759	–
453.15 K, 30000 kPa	763	–
453.15 K, 32500 kPa	766	–
453.15 K, 35000 kPa	770	–
453.15 K, 37500 kPa	773	–
473.15 K, 500 kPa	674	–
473.15 K, 1000 kPa	676	–
473.15 K, 2500 kPa	682	–
473.15 K, 5000 kPa	691	–
473.15 K, 7500 kPa	698	–
473.15 K, 10000 kPa	705	–
473.15 K, 12500 kPa	712	–
473.15 K, 15000 kPa	717	–
473.15 K, 17500 kPa	723	–
473.15 K, 20000 kPa	728	–
473.15 K, 22500 kPa	733	–
473.15 K, 25000 kPa	738	–
473.15 K, 27500 kPa	742	–
473.15 K, 30000 kPa	746	–
473.15 K, 32500 kPa	750	–
473.15 K, 35000 kPa	754	–
473.15 K, 37500 kPa	757	–
